Measured values from patent US20250145600A1, “2-((4-((S)-2-(4-CHLORO-2-FLUOROPHENYL)-2-METHYLBENZO[D][1,3]DIOXOL-4-YL)PIPERIDIN-1-YL)METHYL)-1-(((S)-OXETAN-2-YL)METHYL)-1H-IMIDAZOLE DERIVATIVES AS ACTIVATORS OF THE GLP1 RECEPTOR FOR THE TREATMENT OF OBESITY” (Novartis AG, priority 2022, published 2025).
pEC50: −log10 of the molar value.

Biological target: human GLP1R (hGLP1R) (Homo sapiens, UniProt P43220)
Test: Human GLP1R cAMP agonist assay (GloSensor cAMP Assay)
Type: cell-based
Details: HEK293-SNAP-hGLP1R-GloSensor cells
Experimental: Compounds of formula (I) according to the invention were tested in the following cellular assays that measure the intracellular cAMP concentration, beta-arrestin recruitment and receptor internalization. The cAMP is generated by the activation of GLP1R. The extent to which the GLP1R is internalized into the cell and away from the plasma membrane following activation is also shown in Table 2. EC50 for each assay is defined as the concentration of the compound that leads to half of the maximum response (after baseline correction). Emax is defined as the maximum response observed for the test compound, normalized to the maximum response observed for the endogenous ligand (GLP1(7-36)) to GLP1R.
Human GLP1R cAMP Agonist Assay
The agonist activity of compounds was determined using the GloSensor™ cAMP Assay (Promega Corp.), which measures changes in the intracellular concentration of cAMP after ligand activation of GPCRs. The assay uses a biosensor encoded by pGloSensor™-22F cAMP plasmid (Promega, cat #E2301) with cAMP binding domains fused to a mutant form of Photinus pyralis luciferase. Binding to cAMP causes conformational changes that promote large increases in light output, which can be measured by a luminescence detector. HEK293-SNAP-hGLP1R-GloSensor cells stably overexpressing the human GLP1 receptor (hGLP1R) and pGloSensor™-22F were seeded in white 384-well poly-D-Lysine coated plates (Greiner Bio One, cat #781945) in CO2-independent media (Gibco cat #18045-088 with 1.0% FBS, 2 mM L-glutamine, penicillin and streptomycin) and incubated overnight at 37° C., 5% CO2 with humidity. The assay was started the following morning by adding an equal volume of CO2-independent media containing 4% v/v dilution of the GloSensor substrate (Promega, cat #E1291) to all wells. The cell plate was incubated at rt for 2 h in the dark. The Biomek 7 (Beckman Coulter) instrument was used for the liquid handling steps. To generate duplicate dose response curves, 3-fold serially diluted compounds were added in to the cell assay plate to a final volume of 60 μL with final concentrations ranging from 30 μM through 0.06 μM in CO2-independent media containing 0.1% BSA, 0.5 mM IBMX and 0.4% DMSO. In the same plate and assay buffer as the tested compounds, were EC100 control wells containing GLP1 (7-36) peptide (Bachem, cat #H-6795) at a final concentration of 2 nM and also EC0 control wells containing no peptide. This plate was incubated at rt in the dark for 12 min after adding the compounds to the cells. Luminescence was then measured with an Envision 2104 Multilabel reader with “TRF Light Unit, 337 nm” (PerkinElmer) using the Ultra-Sensitive protocol setting “384-well US luminescence detector” with the 384-well luminescence aperture, 0.1 seconds per well. cAMP activity was calculated as percent of the GLP1 (7-36) EC100 control wells: [(sample signal−mean EC0 signal)/(mean EC100 of GLP1 (7-36) signal−mean EC0 signal)}*100. Curve fitting for EC50 determinations was performed in the Helios module of the software package DAVID. The 4-parameter logistic model, Hill slope was used: y=Ainf+(A0−Ainf)/(1+(x/AC50)^Hill Slope) where y is the functional response; x is the compound concentration; A0 is the minimum value (at 0 dose); Ainf is the maximum value (at infinite dose); AC50 corresponds to the point of inflection (i.e. the point on the sigmoid shaped curve halfway between A0 and Ainf). The EC50 value was represented by the AC50 value calculated from Helios in μM. Emax is the maximal activity detected within the concentration range, derived from the fitted curve.
327 μL of Opti-MEM medium (Gibco, cat #31985-062) were mixed with 12 μL of FuGENE® HD (Promega, cat #E2311) and incubated at rt for 5 min. Then 8.2 μL (4 μg, 0.485 μg/μL solution) of pSNAP-hGLP1R plasmid (Cisbio, cat #PSNAP-GLP1) encoding human GLP1R (NCBI Reference Sequence: NM_002062.3) fused with Cisbio's SNAP tag was added in to the Fugene HD/Opti-MEM mix, and incubated at rt for 20 min. […]

human GLP1R (hGLP1R), sequence (P43220 24-463): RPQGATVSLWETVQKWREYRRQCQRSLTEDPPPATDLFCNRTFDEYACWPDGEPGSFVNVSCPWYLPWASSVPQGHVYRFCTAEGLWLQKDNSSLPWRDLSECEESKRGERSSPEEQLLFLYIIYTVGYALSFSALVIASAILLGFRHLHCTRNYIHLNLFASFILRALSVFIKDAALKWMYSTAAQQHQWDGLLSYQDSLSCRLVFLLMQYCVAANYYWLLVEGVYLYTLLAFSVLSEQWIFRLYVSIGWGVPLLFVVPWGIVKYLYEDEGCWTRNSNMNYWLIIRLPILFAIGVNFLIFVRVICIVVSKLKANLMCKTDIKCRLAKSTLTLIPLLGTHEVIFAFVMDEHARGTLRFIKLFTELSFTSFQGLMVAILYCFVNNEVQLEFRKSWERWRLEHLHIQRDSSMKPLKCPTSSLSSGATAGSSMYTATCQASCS

Compound Cc1nc(CN2CCC(c3cccc4c3O[C@@](C)(c3ccc(Cl)cc3F)O4)CC2)n(C[C@@H]2CCO2)c1-c1nc(C(=O)O)c(C)o1 [Compound C-1, 2-(2-((4-((S)-2-(4-chloro-2-fluorophenyl)-2-methylbenzo[d][1,3]dioxol-4-yl)piperidin-1-yl)methyl)-4-methyl-1-(((S)-oxetan-2-yl)methyl)-1H-imidazol-5-yl)-5-methyloxazole-4-carboxylic acid] has an Emax (cAMP activity as percent of GLP1 (7-36) EC100 control) of 110% and a pEC50 (intracellular cAMP, 12 min at rt) of 10.25.
